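Following 48 hours of exposure in 96-well plates, responses at five concentrations were used to interpolate endpoints linearly. The concentration for 50% growth inhibition is given as GI50. TGI: concentration producing complete growth inhibition.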
How the values were obtained:
Assay in all cases: NCI-60 cell line screen, 48 h
786-0 renal = system: 786-0 renal
A498 renal = system: A498 renal
A549 NSCLC = system: A549 NSCLC
ACHN renal = system: ACHN renal
BT-549 breast = system: BT-549 breast
CAKI-1 renal = system: CAKI-1 renal
CCRF-CEM leukemia = system: CCRF-CEM leukemia
COLO 205 colon = system: COLO 205 colon
DU-145 prostate = system: DU-145 prostate
HCC-2998 colon = system: HCC-2998 colon
HCT-116 colon = system: HCT-116 colon
HCT-15 colon = system: HCT-15 colon
HL-60(TB) leukemia = system: HL-60(TB) leukemia
HOP-62 NSCLC = system: HOP-62 NSCLC
HOP-92 NSCLC = system: HOP-92 NSCLC
HS 578T breast = system: HS 578T breast
HT29 colon = system: HT29 colon
IGROV1 ovarian = system: IGROV1 ovarian
K-562 leukemia = system: K-562 leukemia
KM12 colon = system: KM12 colon
LOX IMVI melanoma = system: LOX IMVI melanoma
M14 melanoma = system: M14 melanoma
MALME-3M melanoma = system: MALME-3M melanoma
MCF7 breast = system: MCF7 breast
MDA-MB-231 breast = system: MDA-MB-231 breast
MDA-MB-435 = system: MDA-MB-435
MOLT-4 leukemia = system: MOLT-4 leukemia
NCI-H226 lung = system: NCI-H226 lung
NCI-H23 lung = system: NCI-H23 lung
NCI-H460 lung = system: NCI-H460 lung
NCI-H522 lung = system: NCI-H522 lung
NCI/ADR-RES ovarian = system: NCI/ADR-RES ovarian
OVCAR-3 ovarian = system: OVCAR-3 ovarian
OVCAR-4 ovarian = system: OVCAR-4 ovarian
OVCAR-5 ovarian = system: OVCAR-5 ovarian
OVCAR-8 ovarian = system: OVCAR-8 ovarian
PC-3 prostate = system: PC-3 prostate
RPMI-8226 leukemia = system: RPMI-8226 leukemia
RXF 393 renal = system: RXF 393 renal
SF-268 CNS = system: SF-268 CNS
SF-295 CNS = system: SF-295 CNS
SF-539 CNS = system: SF-539 CNS
SK-MEL-2 melanoma = system: SK-MEL-2 melanoma
SK-MEL-28 melanoma = system: SK-MEL-28 melanoma
SK-MEL-5 melanoma = system: SK-MEL-5 melanoma
SK-OV-3 ovarian = system: SK-OV-3 ovarian
SN12C renal = system: SN12C renal
SNB-19 CNS = system: SNB-19 CNS
SNB-75 CNS = system: SNB-75 CNS
SR leukemia = system: SR leukemia
SW-620 colon = system: SW-620 colon
T-47D breast = system: T-47D breast
TK-10 renal = system: TK-10 renal
U251 CNS = system: U251 CNS
UACC-257 melanoma = system: UACC-257 melanoma
UACC-62 melanoma = system: UACC-62 melanoma
UO-31 renal = system: UO-31 renal

C[CH2][Pb]([CH2]C)([CH2]C)[O]C(=O)COC
GI50 (786-0 renal): 1220 nM
TGI (786-0 renal): 3110 nM
GI50 (A498 renal): 277 nM
TGI (A498 renal): 2290 nM
GI50 (A549 NSCLC): 1360 nM
TGI (A549 NSCLC): 6820 nM
GI50 (ACHN renal): 836 nM
TGI (ACHN renal): 10200 nM
GI50 (BT-549 breast): 837 nM
TGI (BT-549 breast): 3610 nM
GI50 (CAKI-1 renal): 1060 nM
TGI (CAKI-1 renal): 8040 nM
GI50 (CCRF-CEM leukemia): 534 nM
TGI (CCRF-CEM leukemia): 6840 nM
GI50 (COLO 205 colon): 1350 nM
TGI (COLO 205 colon): 2960 nM
GI50 (DU-145 prostate): 1490 nM
TGI (DU-145 prostate): 5680 nM
GI50 (HCC-2998 colon): 907 nM
TGI (HCC-2998 colon): 2390 nM
GI50 (HCT-116 colon): 578 nM
TGI (HCT-116 colon): 1970 nM
GI50 (HCT-15 colon): 737 nM
TGI (HCT-15 colon): 4330 nM
GI50 (HL-60(TB) leukemia): 634 nM
TGI (HL-60(TB) leukemia): 2450 nM
GI50 (HOP-62 NSCLC): 1670 nM
TGI (HOP-62 NSCLC): 4060 nM
GI50 (HOP-92 NSCLC): 292 nM
TGI (HOP-92 NSCLC): 3280 nM
GI50 (HS 578T breast): 517 nM
TGI (HS 578T breast): 4570 nM
GI50 (HT29 colon): 1430 nM
TGI (HT29 colon): 3380 nM
GI50 (IGROV1 ovarian): 1150 nM
TGI (IGROV1 ovarian): 6330 nM
GI50 (K-562 leukemia): 499 nM
TGI (K-562 leukemia): 5770 nM
GI50 (KM12 colon): 817 nM
TGI (KM12 colon): 6100 nM
GI50 (LOX IMVI melanoma): 815 nM
TGI (LOX IMVI melanoma): 2280 nM
GI50 (M14 melanoma): 400 nM
TGI (M14 melanoma): 1900 nM
GI50 (MALME-3M melanoma): 337 nM
TGI (MALME-3M melanoma): 3760 nM
GI50 (MCF7 breast): 469 nM
TGI (MCF7 breast): 7530 nM
GI50 (MDA-MB-231 breast): 1130 nM
TGI (MDA-MB-231 breast): 3370 nM
GI50 (MDA-MB-435): 182 nM
TGI (MDA-MB-435): 409 nM
GI50 (MOLT-4 leukemia): 1750 nM
TGI (MOLT-4 leukemia): 5970 nM
GI50 (NCI-H226 lung): 1620 nM
TGI (NCI-H226 lung): 6170 nM
GI50 (NCI-H23 lung): 1010 nM
TGI (NCI-H23 lung): 5070 nM
GI50 (NCI-H460 lung): 951 nM
TGI (NCI-H460 lung): 10400 nM
GI50 (NCI-H522 lung): 892 nM
TGI (NCI-H522 lung): 2480 nM
GI50 (NCI/ADR-RES ovarian): 785 nM
TGI (NCI/ADR-RES ovarian): 12000 nM
GI50 (OVCAR-3 ovarian): 441 nM
TGI (OVCAR-3 ovarian): 1860 nM
GI50 (OVCAR-4 ovarian): 541 nM
TGI (OVCAR-4 ovarian): 2910 nM
GI50 (OVCAR-5 ovarian): 1460 nM
TGI (OVCAR-5 ovarian): 3770 nM
GI50 (OVCAR-8 ovarian): 1910 nM
TGI (OVCAR-8 ovarian): 9030 nM
GI50 (PC-3 prostate): 795 nM
TGI (PC-3 prostate): 2510 nM
GI50 (RPMI-8226 leukemia): 421 nM
TGI (RPMI-8226 leukemia): 3000 nM
GI50 (RXF 393 renal): 232 nM
TGI (RXF 393 renal): 783 nM
GI50 (SF-268 CNS): 1750 nM
TGI (SF-268 CNS): 7020 nM
GI50 (SF-295 CNS): 1330 nM
TGI (SF-295 CNS): 3060 nM
GI50 (SF-539 CNS): 1230 nM
TGI (SF-539 CNS): 3280 nM
GI50 (SK-MEL-2 melanoma): 332 nM
TGI (SK-MEL-2 melanoma): 879 nM
GI50 (SK-MEL-28 melanoma): 552 nM
TGI (SK-MEL-28 melanoma): 2900 nM
GI50 (SK-MEL-5 melanoma): 427 nM
TGI (SK-MEL-5 melanoma): 1620 nM
GI50 (SK-OV-3 ovarian): 1550 nM
TGI (SK-OV-3 ovarian): 4930 nM
GI50 (SN12C renal): 2050 nM
TGI (SN12C renal): 9190 nM
GI50 (SNB-19 CNS): 1970 nM
TGI (SNB-19 CNS): 9060 nM
GI50 (SNB-75 CNS): 304 nM
TGI (SNB-75 CNS): 2850 nM
GI50 (SR leukemia): 328 nM
TGI (SR leukemia): 5070 nM
GI50 (SW-620 colon): 333 nM
TGI (SW-620 colon): 1330 nM
GI50 (T-47D breast): 317 nM
TGI (T-47D breast): 2530 nM
GI50 (TK-10 renal): 832 nM
TGI (TK-10 renal): 3770 nM
GI50 (U251 CNS): 1290 nM
TGI (U251 CNS): 2940 nM
GI50 (UACC-257 melanoma): 571 nM
TGI (UACC-257 melanoma): 3260 nM
GI50 (UACC-62 melanoma): 407 nM
TGI (UACC-62 melanoma): 3470 nM
GI50 (UO-31 renal): 567 nM
TGI (UO-31 renal): 2950 nM

Source: PubChem BioAssay (NCI)
